What all share (test): NADH oxidation at […] nm, initial rates
Holding throughout (format): biochemical

Assay [1] deals with T1, Hgdh (Acidaminococcus fermentans, UniProt D2RJU7, V11K/V11M/A206V/A214V/E304K, form not given).
T1 construct: full length, codon-optimized, expressed in E. coli BL21(DE3) from pET-28b, extra Ala after start Met, C-terminal thrombin site and His tag (kept), homodimer of 75 kDa
The following applies: 0.25 mM NADH, 50 mM phosphate pH 8, 25 °C, apparent, residue 11 contradictory: V11K, A2 is the extra cloning Ala.

Assay [2] has as its target T2, Hgdh (Acidaminococcus fermentans, UniProt D2RJU7, V11K/V11M/A206V/A214D/K307I, form not given).
T2 construct: full length, codon-optimized, expressed in E. coli BL21(DE3) from pET-28b, extra Ala after start Met, C-terminal thrombin site and His tag (kept), homodimer of 75 kDa
The following applies: 0.25 mM NADH, 50 mM phosphate pH 8, 25 °C, apparent, residue 11 contradictory: V11K, A2 is the extra cloning Ala.

The target in assay [3] is T3, Hgdh (Acidaminococcus fermentans, UniProt D2RJU7).
T3 construct: full length, codon-optimized, expressed in E. coli BL21(DE3) from pET-28b, extra Ala after start Met, C-terminal thrombin site and His tag (kept), homodimer of 75 kDa
The following applies: 0.25 mM NADH, 50 mM phosphate pH 8, 25 °C; apparent (Km of NADH not determined).

The target in assay [4] is T4, Hgdh (Acidaminococcus fermentans, UniProt D2RJU7, V11K/V11M/A206V/A214V/V312I, form not given).
T4 construct: full length, codon-optimized, expressed in E. coli BL21(DE3) from pET-28b, extra Ala after start Met, C-terminal thrombin site and His tag (kept), homodimer of 75 kDa
The following applies: 0.25 mM NADH, 50 mM phosphate pH 8, 25 °C, apparent, residue 11 contradictory: V11K, A2 is the extra cloning Ala.

Structures are written as SMILES.

A word on the Km: it is the substrate concentration at which the rate is half of its maximum.

T4 sequence (D2RJU7 whole entry, stated change not applied): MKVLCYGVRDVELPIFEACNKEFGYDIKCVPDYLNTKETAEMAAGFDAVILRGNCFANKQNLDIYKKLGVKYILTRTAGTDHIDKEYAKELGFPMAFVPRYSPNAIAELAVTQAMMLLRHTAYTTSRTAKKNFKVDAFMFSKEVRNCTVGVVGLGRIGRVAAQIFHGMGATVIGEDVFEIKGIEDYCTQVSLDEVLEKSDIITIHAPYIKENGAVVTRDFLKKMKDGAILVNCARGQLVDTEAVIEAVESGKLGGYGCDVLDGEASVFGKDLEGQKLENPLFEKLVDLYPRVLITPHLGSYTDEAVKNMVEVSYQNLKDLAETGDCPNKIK
T1 sequence (D2RJU7 whole entry, stated change not applied): as above
T3 sequence (D2RJU7 whole entry): as the sequence (D2RJU7 whole entry, stated change not applied) above
T2 sequence (D2RJU7 whole entry, stated change not applied): as above

Turning to `O=C(O)CCCC(=O)C(=O)O` [2-oxoadipate], the Michaelis-Menten constant (Km) in assay [1] amounted to 4.18 ± 0.2 mM; in assay [2], 3.05 ± 0.24 mM; in assay [3], 2.96 ± 0.24 mM; in assay [4], 9.72 ± 0.67 mM.

Source of the values: PMC9396657, “Directed Evolution of (R)-2-Hydroxyglutarate Dehydrogenase Improves 2-Oxoadipate Reduction by 2 Orders of Magnitude” (ACS Synthetic Biology, 2022).
